Among the data in ChEMBL document CHEMBL1132710, “Antineoplastic agents. 410. Asymmetric hydroxylation of trans-combretastatin A-4” (1999) are GI50, EC50 and MIC values, retold here.

Converted amounts (≈) assume the structure as drawn.

Holding throughout (type): functional
The test system of one assay is SW-1736. As to the kind of experiment: Compound was evaluated against Human cell line thyroid SW1736.
A further assay deals with DU-145. As to the kind of experiment: Compound was evaluated against Human cell line prostate DU-145.
A further assay has as its system P388. As to the kind of experiment: Compound was evaluated against P388 mouse Leukemia cell line. The note with it: read-out: ED50 (the source's name).
For a further assay, the system named is FaDu. Description: Compound was evaluated against Human cell line pharynx FADU.
Another assay concerns NCI-H460. As to the kind of experiment: Compound was evaluated against Human cell line lung-NSC NCI-H460.
A further assay has as its system SK-N-SH. Description: Compound was evaluated against Human cell line neuroblast SK-N-SH.
Another assay deals with OVCAR-3. As to the kind of experiment: Compound was evaluated against Human cell line ovarian OVCAR-3.
A further assay has as its system Neisseria gonorrhoeae. Description: Antimicrobial activity against Neisseria gonorrhoeae.
The subject of the next assay is SF-295. Description: Compound was evaluated against Human cell line CNS SF-295.
A further assay concerns KM-20L2. Description: Compound was evaluated against Human cell line colon KM20L2.
The next assay has as its system BXPC-3. As to the kind of experiment: Compound was evaluated against Human cell line pancreas BXPC-3.
The test system of another assay is SK-MEL-5. As to the kind of experiment: Compound was evaluated against Human cell line melanoma SK-MEL-5.
For another assay, the system named is A498. Description: Compound was evaluated against Human cell line renal A498.
In the next assay the test system is Staphylococcus aureus. Description: Antimicrobial activity against Staphylococcus aureus.

`COc1ccc([C@@H](O)Cc2cc(OC)c(OC)c(OC)c2)cc1O`: the GI50 is over 10 µg/mL with SW-1736; 7.6 µg/mL (≈ 22.7 µM) in the assay with DU-145; 4.8 µg/mL (≈ 14.4 µM) in the assay with FaDu; 9 µg/mL (≈ 26.9 µM) in the assay with NCI-H460; over 10 µg/mL in the assay on SK-N-SH. The EC50 in the assay with P388 is 32.9 µg/mL (≈ 98.4 µM).
For the compound `COc1ccc(/C=C\c2cc(OC)c(OC)c(OC)c2)cc1O` [COMBRETASTATIN A4], the GI50 in the assay on SW-1736 was 0.00071 µg/mL (≈ 0.00224 µM); in the assay on DU-145, 0.00076 µg/mL (≈ 0.0024 µM); in the assay with OVCAR-3, under 0.001 µg/mL; in the assay with FaDu, 0.00065 µg/mL (≈ 0.00205 µM); in the assay on SF-295, under 0.001 µg/mL; with KM-20L2, 0.061 µg/mL (≈ 0.193 µM). Further, the GI50 with BXPC-3 was determined as 0.39 µg/mL (≈ 1.23 µM); with SK-MEL-5, 0.0002 µg/mL (≈ 0.000632 µM); in the assay on NCI-H460 it was 0.00056 µg/mL (≈ 0.00177 µM); in the assay on SK-N-SH, 0.00026 µg/mL (≈ 0.000822 µM). Further, the EC50 in the assay on P388 amounted to 0.00027 µg/mL (≈ 0.000853 µM). Besides, the MIC in the assay with Neisseria gonorrhoeae was 50 ug disk-1.
As to `COc1ccc([C@H](O)[C@@H](O)c2cc(OC)c(OC)c(OC)c2)cc1O`, the GI50 turned out to be 1.8 µg/mL (≈ 5.14 µM) with SW-1736; 2.1 µg/mL (≈ 5.99 µM) with DU-145; 0.38 µg/mL (≈ 1.08 µM) in the assay on OVCAR-3; 0.6 µg/mL (≈ 1.71 µM) in the assay with FaDu; 0.52 µg/mL (≈ 1.48 µM) in the assay with SF-295; 0.52 µg/mL (≈ 1.48 µM) in the assay with KM-20L2. Besides, the 50% growth inhibitory concentration (GI50) in the assay with BXPC-3 stood at 3.9 µg/mL (≈ 11.1 µM); with SK-MEL-5 it was 0.7 µg/mL (≈ 2 µM); in the assay on NCI-H460, 2.5 µg/mL (≈ 7.14 µM); in the assay with SK-N-SH, 0.28 µg/mL (≈ 0.799 µM); in the assay with A498, 0.91 µg/mL (≈ 2.6 µM). Also, the EC50 with P388 was determined as 2 µg/mL (≈ 5.71 µM).
Consider `COc1ccc([C@@H](O)[C@H](O)c2cc(OC)c(OC)c(OC)c2)cc1O`, for which the GI50 with SW-1736 came to 6.1 µg/mL (≈ 17.4 µM); with DU-145 it was 3.5 µg/mL (≈ 9.99 µM); with OVCAR-3 it was 4.5 µg/mL (≈ 12.8 µM); with FaDu it was 2.1 µg/mL (≈ 5.99 µM); in the assay on SF-295, 5.7 µg/mL (≈ 16.3 µM); with KM-20L2, 8.2 µg/mL (≈ 23.4 µM). In addition, the concentration for 50% growth inhibition (GI50) with BXPC-3 was over 10 µg/mL; with SK-MEL-5, 4.9 µg/mL (≈ 14 µM); with NCI-H460 it was 4.4 µg/mL (≈ 12.6 µM); in the assay on SK-N-SH, 1.5 µg/mL (≈ 4.28 µM); with A498, over 10 µg/mL. The EC50 with P388 stood at 19 µg/mL (≈ 54.2 µM).
For the compound `COc1ccc(/C=C\c2cc(OC)c(OC)c(OC)c2)c(O)c1O` [COMBRETASTATIN A-1], the MIC with Staphylococcus aureus is recorded as 100 ug disk-1; in the assay with Neisseria gonorrhoeae, 50 ug disk-1.
In the assay on Neisseria gonorrhoeae, `COc1ccc(/C=C\c2cc(OC)c(OC)c(OC)c2)cc1OP(=O)([O-])O.[Na+]` gave an MIC of 100 ug disk-1.
`COc1ccc(CCc2cc(OC)c(OC)c(OC)c2)c(O)c1O` displayed an MIC against Neisseria gonorrhoeae of 25 ug disk-1.
